According to PubChem BioAssay AID256 (DTP/NCI, 2004):
Where “and” joins values, the source holds several entries; their conditions need not be identical. Equal entries are not always repeated. Toxic doses and inconclusive results are not listed. Rule for the calls: active = survival T/C of 150% or more; inactive = T/C below 125% in these data.

Test system: CD2F1 mice, L1210 leukemia ip, survival T/C
Assay: NCI In Vivo Anticancer Drug Screen. Data for tumor model L1210 Leukemia (intraperitoneal) in CD2F1 (CDF1) mice
Conditions: higher = longer survival
Summary of the method: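 Vehicle-treated tumor-bearing mice served as controls (C) for compound-treated mice (T). Reported figure is T divided by C.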

[1] = endpoint: mean survival time, dose: 400.0 mg/kg/injection, schedule: Q04DX003 (ip), vehicle: other
[2] = endpoint: mean survival time, dose: 100.0 mg/kg/injection, schedule: Q04DX002 (ip), vehicle: saline with Tween-80
[3] = endpoint: mean survival time, dose: 400.0 mg/kg/injection, schedule: Q04DX002 (ip), vehicle: saline with Tween-80
[4] = endpoint: mean survival time, dose: 25.0 mg/kg/injection, schedule: Q04DX003 (ip), vehicle: saline with Tween-80
[5] = endpoint: mean survival time, dose: 50.0 mg/kg/injection, schedule: Q04DX003 (ip), vehicle: saline with Tween-80
[6] = endpoint: mean survival time, dose: 100.0 mg/kg/injection, schedule: Q04DX003 (ip), vehicle: saline with Tween-80
[7] = endpoint: mean survival time, dose: 200.0 mg/kg/injection, schedule: Q04DX003 (ip), vehicle: saline with Tween-80
[8] = endpoint: mean survival time, dose: 25.0 mg/kg/injection, schedule: Q04DX002 (ip), vehicle: saline
[9] = endpoint: mean survival time, dose: 50.0 mg/kg/injection, schedule: Q04DX002 (ip), vehicle: saline
[10] = endpoint: mean survival time, dose: 100.0 mg/kg/injection, schedule: Q04DX002 (ip), vehicle: saline
[11] = endpoint: mean survival time, dose: 100.0 mg/kg/injection, schedule: Q01DX001 (ip), vehicle: saline with Tween-80
[12] = endpoint: mean survival time, dose: 200.0 mg/kg/injection, schedule: Q01DX001 (ip), vehicle: saline with Tween-80
[13] = endpoint: mean survival time, dose: 200.0 mg/kg/injection, schedule: Q04DX002 (ip), vehicle: saline with Tween-80
[14] = endpoint: mean survival time, dose: 100.0 mg/kg/injection, schedule: Q01DX009 (ip), vehicle: saline with Tween-80
[15] = endpoint: mean survival time, dose: 200.0 mg/kg/injection, schedule: Q01DX009 (ip), vehicle: saline with Tween-80
[16] = endpoint: mean survival time, dose: 400.0 mg/kg/injection, schedule: Q04DX003 (ip), vehicle: saline with Tween-80
[17] = endpoint: mean survival time, dose: 100.0 mg/kg/injection, schedule: Q01DX009 (ip), vehicle: other
[18] = endpoint: mean survival time, dose: 200.0 mg/kg/injection, schedule: Q01DX009 (ip), vehicle: other
[19] = endpoint: mean survival time, dose: 400.0 mg/kg/injection, schedule: Q01DX009 (ip), vehicle: other
[20] = endpoint: mean survival time, dose: 400.0 mg/kg/injection, schedule: Q01DX001 (ip), vehicle: saline with Tween-80

Measured: T/C

CCC(=O)Oc1ccc(/C=N/NC(N)=S)nc1
inactive: endpoint: mean survival time, dose: 100.0 mg/kg/injection, schedule: Q04DX002 (ip), vehicle: other 108 % of control | endpoint: mean survival time, dose: 178.0 mg/kg/injection, schedule: Q01DX001 (ip), vehicle: other 114 % of control | endpoint: mean survival time, dose: 178.0 mg/kg/injection, schedule: Q04DX003 (ip), vehicle: other 116 % of control | endpoint: mean survival time, dose: 200.0 mg/kg/injection, schedule: Q04DX002 (ip), vehicle: other 123 % of control | endpoint: mean survival time, dose: 266.0 mg/kg/injection, schedule: Q01DX001 (ip), vehicle: other 112 % of control | endpoint: mean survival time, dose: 266.0 mg/kg/injection, schedule: Q04DX003 (ip), vehicle: other 113 % of control | endpoint: mean survival time, dose: 400.0 mg/kg/injection, schedule: Q01DX001 (ip), vehicle: other 118 % of control | [1] 122 % of control | endpoint: mean survival time, dose: 600.0 mg/kg/injection, schedule: Q01DX001 (ip), vehicle: other 110 % of control | endpoint: mean survival time, dose: 600.0 mg/kg/injection, schedule: Q04DX003 (ip), vehicle: other 119 % of control | endpoint: mean survival time, dose: 900.0 mg/kg/injection, schedule: Q04DX003 (ip), vehicle: other 122 % of control

Cc1cc(=O)c(C(=O)NC/C(C#N)=C\c2ccccc2)c(C)[nH]1
inactive: [2] 93 % of control | [3] 100 % of control

O=C1NC2(CCCC2)C(=O)N2CCCC12 (stereo unspecified)
inactive: endpoint: mean survival time, dose: 50.0 mg/kg/injection, schedule: Q04DX003 (ip), vehicle: Klucel (hydroxypropylcellulose) (HPC) 93 % of control | endpoint: mean survival time, dose: 100.0 mg/kg/injection, schedule: Q04DX003 (ip), vehicle: Klucel (hydroxypropylcellulose) (HPC) 93 % of control | endpoint: mean survival time, dose: 200.0 mg/kg/injection, schedule: Q04DX003 (ip), vehicle: Klucel (hydroxypropylcellulose) (HPC) 97 % of control

CS(C)(=O)=C/C(=C\C(=O)c1ccccc1)c1ccccc1
inactive: endpoint: mean survival time, dose: 25.0 mg/kg/injection, schedule: Q01DX009 (ip), vehicle: saline 94 % of control | endpoint: mean survival time, dose: 50.0 mg/kg/injection, schedule: Q01DX009 (ip), vehicle: saline 94 % of control | endpoint: mean survival time, dose: 100.0 mg/kg/injection, schedule: Q01DX009 (ip), vehicle: saline 94 % of control

S=c1[nH]nc2n1NC(c1ccoc1)=NN2
inactive: [4] 96 % of control | [5] 100 % of control | [6] 90 % of control and 93 % of control | [7] 107 % of control

N/C(=N\OCc1ccccc1)c1ncn(C2CCCC2)c1N
inactive: endpoint: mean survival time, dose: 75.0 mg/kg/injection, schedule: Q01DX001 (ip), vehicle: other 102 % of control | endpoint: mean survival time, dose: 150.0 mg/kg/injection, schedule: Q01DX001 (ip), vehicle: other 106 % of control | endpoint: mean survival time, dose: 300.0 mg/kg/injection, schedule: Q01DX001 (ip), vehicle: other 103 % of control

SCC1=NCCN1
inactive: [8] 103 % of control | [9] 98 % of control | [10] 93 % of control and 95 % of control

CC1C(c2ccccc2)OC(N2CCOCC2)C(C)(C)CN1C (stereo unspecified)
inactive: endpoint: median survival time, dose: 50.0 mg/kg/injection, schedule: Q01DX009 (ip), vehicle: saline with Tween-80 100 % of control | endpoint: median survival time, dose: 100.0 mg/kg/injection, schedule: Q01DX009 (ip), vehicle: saline with Tween-80 102 % of control | endpoint: median survival time, dose: 200.0 mg/kg/injection, schedule: Q01DX009 (ip), vehicle: saline with Tween-80 102 % of control | endpoint: median survival time, dose: 400.0 mg/kg/injection, schedule: Q01DX009 (ip), vehicle: saline with Tween-80 97 % of control

CC1CC(C)(C)N=C(CCCCCCl)O1 (stereo unspecified)
inactive: endpoint: mean survival time, dose: 50.0 mg/kg/injection, schedule: Q04DX002 (ip), vehicle: saline with Tween-80 101 % of control | [11] 103 % of control | [2] 108 % of control | [12] 105 % of control | [13] 112 % of control

COC(=O)C1CC[N-]CC1.COC(=O)C1CC[N-]CC1.[Cl][Pt+2][Cl]
inactive: [14] 115 % of control | [15] 114 % of control

NC(=O)C[P+](c1ccccc1)(c1ccccc1)c1ccccc1
inactive: [4] 109 % of control | [5] 114 % of control | [6] 102 % of control and 105 % of control

CNC1CC2CCC1(C)C2(C)C (stereo unspecified)
inactive: [8] 101 % of control | [9] 112 % of control | [10] 96 % of control

CC(C)(C)[CH2][Sn]([Cl])([CH2]C(C)(C)C)[CH2]C(C)(C)C
inactive: endpoint: mean survival time, dose: 3.13 mg/kg/injection, schedule: Q04DX002 (ip), vehicle: saline with Tween-80 97 % of control | endpoint: mean survival time, dose: 6.25 mg/kg/injection, schedule: Q04DX002 (ip), vehicle: saline with Tween-80 101 % of control | endpoint: mean survival time, dose: 12.5 mg/kg/injection, schedule: Q04DX002 (ip), vehicle: saline with Tween-80 103 % of control

Cc1cc(N)c(C)c([N+](=O)[O-])c1
inactive: [6] 103 % of control | [7] 101 % of control | [16] 92 % of control

Cc1ccc2nc(-c3ccc4nc(-c5ccc(N)cc5)sc4c3)sc2c1S(=O)(=O)O
inactive: endpoint: mean survival time, dose: 100.0 mg/kg/injection, schedule: Q04DX003 (ip), vehicle: saline 109 % of control | endpoint: mean survival time, dose: 200.0 mg/kg/injection, schedule: Q04DX003 (ip), vehicle: saline 107 % of control | endpoint: mean survival time, dose: 400.0 mg/kg/injection, schedule: Q04DX003 (ip), vehicle: saline 112 % of control

CCCCOC(=O)/C=C/C(=O)OCCCC
inactive: [6] 102 % of control | [7] 102 % of control | [16] 105 % of control

COC1=C(OC)C(=O)C(C/C=C(\C)CCCC(C)CCCC(C)CCCC(C)C)=C(C)C1=O (stereo unspecified)
inactive: [17] 94 % of control | [18] 95 % of control | [19] 94 % of control

O=C(/C=C/c1ccc2c(c1)OCO2)c1ccc(Cl)cc1
inactive: [6] 94 % of control | [7] 89 % of control

CC12CCC(O)CC1CCC1C2CCC2(C)C(C3COC(=O)C3)CCC12 (stereo unspecified)
inactive: endpoint: mean survival time, dose: 50.0 mg/kg/injection, schedule: Q01DX001 (ip), vehicle: saline 98 % of control | endpoint: mean survival time, dose: 100.0 mg/kg/injection, schedule: Q01DX001 (ip), vehicle: saline 98 % of control | endpoint: mean survival time, dose: 200.0 mg/kg/injection, schedule: Q01DX001 (ip), vehicle: saline 96 % of control

O=C(Nc1cccc(Cl)c1)C(c1ccccc1)c1ccccc1
inactive: [2] 95 % of control | [13] 87 % of control | [3] 91 % of control

COC(=O)CCCc1c[nH]c2ccccc12
inactive: endpoint: mean survival time, dose: 100.0 mg/kg/injection, schedule: Q04DX003 (ip), vehicle: other 101 % of control | endpoint: mean survival time, dose: 200.0 mg/kg/injection, schedule: Q04DX003 (ip), vehicle: other 115 % of control | [1] 94 % of control

COC(=O)c1cc(Br)c(I)c([N+](=O)[O-])c1
inactive: [14] 102 % of control | [6] 95 % of control | [15] 108 % of control | [7] 106 % of control | endpoint: mean survival time, dose: 400.0 mg/kg/injection, schedule: Q01DX009 (ip), vehicle: saline with Tween-80 105 % of control | [16] 97 % of control

S=c1nc[nH]c2ccccc12
inactive: [11] 93 % of control | [2] 91 % of control and 105 % of control | [6] 95 % of control and 97 % of control | [12] 94 % of control | [13] 94 % of control and 102 % of control | [7] 86 % of control and 90 % of control | [20] 88 % of control | [3] 91 % of control and 98 % of control

c1ccc(N=Nn2c3ccccc3c3ccccc32)cc1
inactive: [11] 104 % of control | [12] 102 % of control | endpoint: mean survival time, dose: 264.0 mg/kg/injection, schedule: Q01DX001 (ip), vehicle: saline with Tween-80 104 % of control | [20] 120 % of control | endpoint: mean survival time, dose: 600.0 mg/kg/injection, schedule: Q01DX001 (ip), vehicle: saline with Tween-80 104 % of control

Fc1c(F)c(F)c(-c2nnc(-c3c(F)c(F)c(F)c(F)c3F)o2)c(F)c1F
inactive: [11] 96 % of control | [12] 96 % of control | [20] 95 % of control

COc1ncc(C2OC(CO)C(O)C2O)c(OC)n1 (stereo unspecified)
inactive: endpoint: mean survival time, dose: 25.0 mg/kg/injection, schedule: Q01DX009 (ip), vehicle: other 100 % of control | endpoint: mean survival time, dose: 50.0 mg/kg/injection, schedule: Q01DX009 (ip), vehicle: other 104 % of control | [17] 96 % of control | [18] 100 % of control | [19] 96 % of control

COc1ccc(OC)c(NC(=O)NNc2ccc([N+](=O)[O-])cc2[N+](=O)[O-])c1
inactive: [14] 88 % of control | [15] 91 % of control
